Measurements taken from US20260284203A1 (priority 2023, published 2026).
Where two headings read alike, the source gives them in different places.

Experiments:
[1] = biological target: purified capsid protein assembly domain, Cp149 (Hepatitis B virus subtype adyw, UniProt P03147); test: Capsid assembly assay (size exclusion chromatography); type: biochemical, HBV; details: 10 μM Cp149 dimer, 20 μM compound, 24 h at room temperature, versus capsid control
Method: Stimulation of HBV virus assembly is a known property of CAM molecules. As structural changes can have unpredictable effects on function, a capsid assembly assay was conducted with exemplary rCAM DP41-0012 to evaluate whether the construct retained CAM activity. Relative peak HBV capsid volume following exposure to the exemplary rCAM was determined in comparison to dimer, DMSO, and capsid controls, along with CAM compounds bersacapavir and NVR-3-778.
To test capsid assembly, samples or controls were incubated for 20 minutes with purified capsid protein assembly domain, Cp149, so that final conditions were 10 μM Cp149 dimer 20 μM compound or control 2% DMSO 50 mM TrisHCl pH 7.5. To this mixture was added an equal volume of 600 mM NaCl 50 mM TrisHCl pH 7.5. Reactions were equilibrated for 24 h at room temperature and the resolved by size exclusion chromatography using a 10/300 Superose6 column running at 0.5 ml/minute. The running buffer for this column was 50 mM TrisHCl 300 mM NaCl. Elution profiles were recorded by absorbance at 280 nm. Integrated capsid peaks eluting between 16 and 20 minutes and dimer peaks eluting between 34 and 39 minutes were reported.

Supercoiled plasmid = test: In vitro DNA nicking assay; type: biochemical, E. coli; details: 10 μM CuCl2, 3 hours at room temperature (21° C.) in the dark
Method: The capacity of rCAM compounds to cause DNA damage was evaluated using an in vitro DNA nicking assay. Specifically, the double stranded DNA (dsDNA) nicking activity of exemplary rCAM DP41-0012 was compared to CAM compounds bersacapavir and NVR-3-778, and DMSO controls.
Supercoiled plasmid, the substrate for this assay, was purified from E. coli, using a Qiagen miniprep kit. A “master mix” of 3 ng/μl Miniprep DNA, 10 μM CuCl2, 20 mM TrisHCl pH7.5 was prepared. Samples included 99 μl of master mix plus 1 μl of compound or control. Reactions were incubated for 3 hours at room temperature (21° C.) in the dark. Aliquots of the reactions (20 μl) were resolved on a 0.8% TAE agarose gel with 1/20,000 SYBR Safe stain electrophoresed at 80V for 90 minutes. The gel was visualized on a ChemidocMP in fluorescein blot mode.

[2] = tested on: in vitro transcribed pregenomic HBV RNA (pgRNA); test: pgRNA activity assay by denaturing agarose gel electrophoresis; type: biochemical; details: for RNA signal on gel, free pgRNA: 100 μM; for RNA signal on gel, free pgRNA / RNA bands on gel, free pgRNA: 1% or 10% DMSO; for RNA bands on gel, free pgRNA / pgRNA band on denaturing agarose gel: 900 μM; for pgRNA band on denaturing agarose gel: 1 hour
Cp149 dimers = Cp149 dimers (Hepatitis B virus subtype adyw, UniProt P03147); test: Cp149 dimer assembly with rCAM visualized by transmission electron microscopy; type: biochemical, HBV; details: dimer:rCAM 1:5, NaCl 300 mM, overnight at 25° C.
Method: Cp dimers were assembled with HAP-PEG2-CBL and HAP-PEG4-CBL to verify the HAP backbone's ability to bind the dimer-dimer interface. Cp149 dimers were mixed with each rCAM in a 1:5 ratio (dimer:rCAM). Assembly was induced by addition of NaCl (300 mM) followed by incubation overnight at 25° C. Assembly products were visualized via transmission electron microscopy (TEM) (FIG. 10). Assembly in NaCl alone led to normal spherical capsids (FIG. 10A). […] Boume, C., et al., J Virol 82:10262, 2008.

[3] = tested on: in vitro transcribed pregenomic HBV RNA (pgRNA); type: biochemical; details: for effect on pgRNA amplification / RNA transcription (RT-qPCR, Cp gene): either temperature (25° C. or 37° C.)
[4] = 25° C. and 37° C. (both temperature conditions)

Cp149 dimers, sequence (P03147 1-149): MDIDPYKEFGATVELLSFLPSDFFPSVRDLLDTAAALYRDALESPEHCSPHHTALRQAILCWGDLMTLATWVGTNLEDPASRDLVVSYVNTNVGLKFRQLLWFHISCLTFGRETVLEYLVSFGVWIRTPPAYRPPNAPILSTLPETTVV
purified capsid protein assembly domain, Cp149, sequence (P03147 1-149): as above

Compound: Cn1cc(S(=O)(=O)NCCNC(=O)c2cc(O)c(O)c(O)c2)cc1C(=O)Nc1ccc(F)c(C#N)c1 [DP41-0012, N-(3-cyano-4-fluorophenyl)-1-methyl-4-(N-(2-(3,4,5-trihydroxybenzamido)ethyl)-sulfamoyl)-1H-pyrrole-2-carboxamide]
- relative peak capsid volume [1]: exceeded that of the capsid control
- plasmid DNA form seen on agarose gel (dsDNA nicking activity) (Supercoiled plasmid): DNA band corresponding to the size of a nicked circle

Compound: COC(=O)C1=C(CN2CCN(C(=O)CCOCCOCCOC(=O)CCCc3ccc(N(CCCl)CCCl)cc3)CC2)NC(c2ccccn2)=NC1c1ccc(F)cc1Cl (stereo not drawn) [HAP-PEG2-CBL, Methyl 6-((4-(3-(2-(2-((4-(4-(bis(2-chloroethyl)amino)phenyl)butanoyl)oxy)ethoxy)ethoxy)propanoyl)piperazin-1-yl)methyl)-4-(2-chloro-4-fluorophenyl)-2-(pyridin-2-yl)-1,4-dihydropyrimidine-5-carboxylate]
- RNA signal on gel, free pgRNA ([2]; 37° C.): slight reduction in RNA signal
- RNA bands on gel, free pgRNA ([2]; 37° C.): almost complete dissipation of RNA bands
- assembly products seen by TEM (Cp149 dimers): both spherical capsids, faceted/broken capsids, and flat, aberrant structures

Compound: COC(=O)C1=C(CN2CCN(C(=O)CCOCCOCCOCCOCCOC(=O)CCCc3ccc(N(CCCl)CCCl)cc3)CC2)NC(c2ccccn2)=NC1c1ccc(F)cc1Cl (stereo not drawn) [HAP-PEG4-CBL]
- RNA signal on gel, free pgRNA ([2]; 37° C.): slight reduction in RNA signal
- RNA bands on gel, free pgRNA ([2]; 37° C.): almost complete dissipation of RNA bands
- assembly products seen by TEM (Cp149 dimers): floret-shaped, aberrant particles

Compound: O=C(Nc1cc(F)c(F)c(F)c1)c1ccc(F)c(S(=O)(=O)N2CCC(O)CC2)c1 [NVR-3-778]
- plasmid DNA form seen on agarose gel (dsDNA nicking activity) (Supercoiled plasmid): supercoiled plasmid substrate was detectable

Compound: CN(C)c1nc(N(C)C)nc(N(C)C)n1 [altretamine]
- effect on pgRNA amplification / RNA transcription (RT-qPCR, Cp gene) ([3]; 900 μM, 1 hour): does affect RNA transcription

Compound: C[C@H](NS(=O)(=O)c1cc(C(=O)Nc2ccc(F)c(C#N)c2)n(C)c1)C(F)(F)F [bersacapavir]
- plasmid DNA form seen on agarose gel (dsDNA nicking activity) (Supercoiled plasmid): supercoiled plasmid substrate was detectable

Compound: O=C(O)CCCc1ccc(N(CCCl)CCCl)cc1 [chlorambucil]
- pgRNA band on denaturing agarose gel [2, 4]: completely dissipate RNA
- reduction in RNA amplification (RT-qPCR, Cp gene) ([3]; 900 μM, 1 hour, 25° C.): approximately 1 log
- decrease in RNA levels (RT-qPCR, Cp gene) ([3]; 900 μM, 1 hour, 37° C.): 4 log

Compound: N.N.[Cl][Pt][Cl] [cisplatin]
- pgRNA band on denaturing agarose gel [2, 4]: faster migrating and smeared bands
- decrease in RNA levels (RT-qPCR, Cp gene) [3]: 3 log
- reduction in RNA amplification (RT-qPCR, Cp gene) [3]: approximately 1 log

Compound: CO[C@@]12[C@H](COC(N)=O)C3=C(C(=O)C(C)=C(N)C3=O)N1C[C@@H]1N[C@@H]12 [mitomycin C]
- effect on pgRNA amplification / RNA transcription (RT-qPCR, Cp gene) ([3]; 900 μM, 1 hour): does affect RNA transcription

Compound: phleomycin
- pgRNA band on denaturing agarose gel ([2]; 37° C.): completely disappeared
- pgRNA band on denaturing agarose gel ([2]; room temperature (25° C.)): reduced in width
- effect on pgRNA amplification / RNA transcription (RT-qPCR, Cp gene) ([3]; 900 μM, 1 hour): does not suppress pgRNA amplification appreciably
